In ChEMBL document CHEMBL1201862, “PubChem BioAssay data set” (2004):
The source made the active and inactive calls.

Experiments:
[1] = molecular target: Dual specificity protein kinase CLK2 (Homo sapiens, UniProt P49760); type: functional
[2] = molecular target: Focal adhesion kinase 1 (Homo sapiens, UniProt Q05397); type: functional;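 further: measured as one member of a kinome panel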
[3] = molecular target: Dual specificity mitogen-activated protein kinase kinase 2 (Homo sapiens, UniProt P36507); experiment: Navigating the Kinome. Panel member name: MAP2K2; type: functional
[4] = molecular target: Leukocyte tyrosine kinase receptor (Homo sapiens, UniProt P29376); experiment: Navigating the Kinome. Panel member name: LTK; type: functional
[5] = molecular target: LIM domain kinase 1 (Homo sapiens, UniProt P53667); experiment: Navigating the Kinome. Panel member name: LIMK1; type: functional
[6] = molecular target: Protein kinase C theta type (Homo sapiens, UniProt Q04759); experiment: Navigating the Kinome. Panel member name: PRKCQ; type: functional
[7] = molecular target: Hepatocyte growth factor receptor (Homo sapiens, UniProt P08581); type: functional;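 further: kinase panel profiling across the kinome, with MET as the panel member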
[8] = molecular target: Mitogen-activated protein kinase 9 (Homo sapiens, UniProt P45984); type: functional;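 further: value from a kinome panel profiling assay, MAPK9 panel entry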
[9] = molecular target: Tyrosine-protein kinase receptor TYRO3 (Homo sapiens, UniProt Q06418); type: functional;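 further: TYRO3 value obtained as one member of a kinome-wide profiling panel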
[10] = molecular target: Leucine-rich repeat serine/threonine-protein kinase 2 (Homo sapiens, UniProt Q5S007); type: functional;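 further: value from a broad kinome-wide panel profiling study in which LRRK2 was one of the kinases tested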
[11] = molecular target: Insulin-like growth factor 1 receptor (Homo sapiens, UniProt P08069); experiment: Navigating the Kinome. Panel member name: IGF1R; type: functional
[12] = molecular target: Tyrosine-protein kinase Fyn (Homo sapiens, UniProt P06241); type: functional
[13] = molecular target: Activin receptor type-1 (Homo sapiens, UniProt Q04771); experiment: Navigating the Kinome. Panel member name: ACVR1; type: functional
Activin receptor type-1, sequence (Q04771 whole entry): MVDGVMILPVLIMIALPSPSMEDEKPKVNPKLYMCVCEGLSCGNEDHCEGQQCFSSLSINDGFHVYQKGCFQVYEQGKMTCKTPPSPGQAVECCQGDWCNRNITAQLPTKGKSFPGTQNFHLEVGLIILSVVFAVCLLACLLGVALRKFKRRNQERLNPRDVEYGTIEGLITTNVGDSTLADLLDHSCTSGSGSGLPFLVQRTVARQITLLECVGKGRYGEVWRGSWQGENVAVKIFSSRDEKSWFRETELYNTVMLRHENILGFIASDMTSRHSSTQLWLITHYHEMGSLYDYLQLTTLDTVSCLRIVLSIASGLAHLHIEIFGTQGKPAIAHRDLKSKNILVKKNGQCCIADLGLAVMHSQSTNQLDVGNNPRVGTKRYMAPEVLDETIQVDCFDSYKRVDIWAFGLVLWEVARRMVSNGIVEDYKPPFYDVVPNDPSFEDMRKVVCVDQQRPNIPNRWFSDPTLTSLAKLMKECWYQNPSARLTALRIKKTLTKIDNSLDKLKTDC

[14] = molecular target: Macrophage-stimulating protein receptor (Homo sapiens, UniProt Q04912); experiment: Navigating the Kinome. Panel member name: MST1R; type: functional
[15] = molecular target: Serine/threonine-protein kinase D3 (Homo sapiens, UniProt O94806); type: functional;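 further: determined within a kinase panel screen, with PRKCN as the panel member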
[16] = molecular target: Mitogen-activated protein kinase kinase kinase kinase 2 (Homo sapiens, UniProt Q12851); type: functional;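 further: measured as one member of a kinome-wide kinase panel, with MAP4K2 as the panel entry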
[17] = molecular target: Fibroblast growth factor receptor 1 (Homo sapiens, UniProt P11362); type: functional
[18] = molecular target: Cyclin-dependent kinase 5 (Homo sapiens, UniProt Q00535); type: functional;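 further: CDK5 measured as one member of a kinase profiling panel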
Cyclin-dependent kinase 5, sequence (Q00535 whole entry): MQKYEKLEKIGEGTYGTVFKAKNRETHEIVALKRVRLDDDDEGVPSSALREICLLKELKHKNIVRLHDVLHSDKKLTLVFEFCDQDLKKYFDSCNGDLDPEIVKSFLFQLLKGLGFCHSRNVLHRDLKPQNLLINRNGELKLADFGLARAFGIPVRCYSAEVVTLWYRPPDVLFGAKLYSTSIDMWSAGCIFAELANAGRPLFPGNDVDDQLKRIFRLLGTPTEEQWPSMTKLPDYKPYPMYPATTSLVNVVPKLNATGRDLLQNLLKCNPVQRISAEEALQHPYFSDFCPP

[19] = molecular target: Rho-associated protein kinase 1 (Homo sapiens, UniProt Q13464); type: functional;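 further: measured within a broad kinome-wide panel profiling many kinases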
Rho-associated protein kinase 1, sequence (Q13464 whole entry): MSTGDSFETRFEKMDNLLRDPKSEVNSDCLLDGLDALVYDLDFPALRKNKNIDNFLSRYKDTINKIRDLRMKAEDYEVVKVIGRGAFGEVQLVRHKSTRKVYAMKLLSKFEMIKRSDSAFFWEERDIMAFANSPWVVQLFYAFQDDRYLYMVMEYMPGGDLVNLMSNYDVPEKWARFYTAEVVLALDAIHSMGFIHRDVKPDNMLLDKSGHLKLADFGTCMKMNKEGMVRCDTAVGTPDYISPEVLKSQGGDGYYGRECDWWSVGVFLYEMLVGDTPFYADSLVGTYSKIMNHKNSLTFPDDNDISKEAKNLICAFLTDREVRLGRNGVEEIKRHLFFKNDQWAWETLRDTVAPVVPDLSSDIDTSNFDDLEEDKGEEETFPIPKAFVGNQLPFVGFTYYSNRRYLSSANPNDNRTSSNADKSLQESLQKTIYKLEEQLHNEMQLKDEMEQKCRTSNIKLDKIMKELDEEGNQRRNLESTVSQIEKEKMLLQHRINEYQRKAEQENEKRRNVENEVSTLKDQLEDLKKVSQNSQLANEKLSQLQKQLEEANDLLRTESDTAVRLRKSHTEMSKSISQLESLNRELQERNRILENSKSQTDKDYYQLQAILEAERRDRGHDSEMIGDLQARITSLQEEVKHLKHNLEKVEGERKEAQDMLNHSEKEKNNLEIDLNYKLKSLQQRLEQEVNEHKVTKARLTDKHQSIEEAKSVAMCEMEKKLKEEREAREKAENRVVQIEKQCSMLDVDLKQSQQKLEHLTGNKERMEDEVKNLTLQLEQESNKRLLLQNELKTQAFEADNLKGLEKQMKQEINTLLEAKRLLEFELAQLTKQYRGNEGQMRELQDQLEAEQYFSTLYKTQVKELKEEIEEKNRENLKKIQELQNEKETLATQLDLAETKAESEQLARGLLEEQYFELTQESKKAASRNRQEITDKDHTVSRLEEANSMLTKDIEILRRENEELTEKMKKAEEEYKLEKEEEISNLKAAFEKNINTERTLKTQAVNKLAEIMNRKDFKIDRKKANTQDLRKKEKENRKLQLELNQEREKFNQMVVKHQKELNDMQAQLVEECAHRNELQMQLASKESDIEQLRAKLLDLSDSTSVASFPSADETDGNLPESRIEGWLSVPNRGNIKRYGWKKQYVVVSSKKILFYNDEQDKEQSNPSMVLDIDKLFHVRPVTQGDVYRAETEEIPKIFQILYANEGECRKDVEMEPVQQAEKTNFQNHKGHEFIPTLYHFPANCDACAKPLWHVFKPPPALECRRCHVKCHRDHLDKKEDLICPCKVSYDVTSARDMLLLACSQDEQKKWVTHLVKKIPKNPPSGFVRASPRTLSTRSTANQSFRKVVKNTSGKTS

[20] = molecular target: Glycogen synthase kinase-3 alpha (Homo sapiens, UniProt P49840); type: functional;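 further: GSK3A result taken from a broad kinome-wide kinase panel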
Glycogen synthase kinase-3 alpha, sequence (P49840 whole entry): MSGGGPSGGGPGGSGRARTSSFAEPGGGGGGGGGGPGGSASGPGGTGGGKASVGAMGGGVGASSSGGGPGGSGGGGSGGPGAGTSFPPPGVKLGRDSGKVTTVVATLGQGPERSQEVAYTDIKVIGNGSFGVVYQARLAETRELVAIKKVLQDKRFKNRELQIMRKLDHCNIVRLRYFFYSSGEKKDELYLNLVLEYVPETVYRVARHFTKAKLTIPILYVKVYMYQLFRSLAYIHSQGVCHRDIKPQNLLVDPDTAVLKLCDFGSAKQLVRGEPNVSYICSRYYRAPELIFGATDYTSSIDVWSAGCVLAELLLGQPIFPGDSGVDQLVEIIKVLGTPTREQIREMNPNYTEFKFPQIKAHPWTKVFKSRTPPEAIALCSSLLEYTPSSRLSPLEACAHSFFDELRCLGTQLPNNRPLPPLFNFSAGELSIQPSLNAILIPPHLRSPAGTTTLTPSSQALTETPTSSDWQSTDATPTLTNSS

[21] = molecular target: Tyrosine-protein kinase Lck (Homo sapiens, UniProt P06239); type: functional;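 further: lck was assayed as one member of a kinase panel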
[22] = molecular target: Casein kinase I isoform alpha (Homo sapiens, UniProt P48729); type: functional
[23] = molecular target: Platelet-derived growth factor receptor alpha (Homo sapiens, UniProt P16234); experiment: Navigating the Kinome. Panel member name: PDGFRA; type: functional
[24] = molecular target: High affinity nerve growth factor receptor (Homo sapiens, UniProt P04629); type: functional;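 further: NTRK1 tested as one member of a kinome-wide profiling panel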
[25] = molecular target: Tyrosine-protein kinase JAK2 (Homo sapiens, UniProt O60674); type: functional;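 further: JAK2 tested as one member of a kinase panel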
[26] = molecular target: Vascular endothelial growth factor receptor 1 (Homo sapiens, UniProt P17948); type: functional;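 further: measured within a kinome-wide profiling panel, FLT1 as the panel member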
[27] = A Cell Based Secondary Assay to Explore Cytotoxicity in HepG2 Cells of Compounds that Modulate Mycobacterium tuberculosis in Media Containing Glycerol versus Media without Glycerol (2).; type: functional
[28] = Vero cell cytotoxicity, dose response, cytotoxicity control for M. tuberculosis growth inhibitor project, Vero cells, purified and synthesized compounds, set 4 (AID 504854); type: functional; conditions: Mycobacterium tuberculosis
[29] = molecular target: CAAX prenyl protease 1 (Saccharomyces cerevisiae S288c, UniProt P47154); experiment: Ste24 protease inhibitors, dose response, biochemical, S. cerevisiae, plate reader, cherry-pick (AID 488815)
[30] = microbe, parasite or virus in culture; type: functional; conditions: Mycobacterium tuberculosis
[31] = Vero cell cytotoxicity, cytotoxicity control for M. tuberculosis inhibitor project, purified and synthesized samples, set 3 (AID 504684); type: functional
[32] = molecular target: T1, CAAX prenyl protease 2 (Homo sapiens, UniProt Q9Y256); experiment: human Rce1 protease inhibitors, dose response, biochemical, yeast membranes, quenched-peptide fluorescence, cherry-pick (AID 588849)
T1 sequence (Q9Y256 whole entry): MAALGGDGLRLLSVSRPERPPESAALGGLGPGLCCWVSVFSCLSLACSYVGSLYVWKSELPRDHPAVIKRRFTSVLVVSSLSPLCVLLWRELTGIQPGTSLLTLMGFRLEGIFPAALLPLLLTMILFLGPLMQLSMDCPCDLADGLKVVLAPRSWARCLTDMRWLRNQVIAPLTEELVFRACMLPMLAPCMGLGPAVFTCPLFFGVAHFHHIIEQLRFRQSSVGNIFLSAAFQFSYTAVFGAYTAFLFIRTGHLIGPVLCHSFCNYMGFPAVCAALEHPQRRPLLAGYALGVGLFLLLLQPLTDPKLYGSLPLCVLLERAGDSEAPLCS

[33] = THP-1 cell cytotoxicity, cytotoxicity control, set 4 (AID 504911); type: functional; conditions: Mycobacterium tuberculosis
[34] = HepG2 cell cytotoxicity, dose response, cytotoxicity control, set 3 (AID 504853); type: functional; conditions: Mycobacterium tuberculosis
[35] = THP-1 cell cytotoxicity, dose response, cytotoxicity control, set 3 (AID 504852); type: functional; conditions: Mycobacterium tuberculosis
[36] = Vero cell cytotoxicity, dose response, cytotoxicity control for M. tuberculosis growth inhibitor project, Vero cells, purified and synthesized compounds, set 5 (AID 504909); type: functional; conditions: Mycobacterium tuberculosis
[37] = A Cell Based Secondary Assay to Explore Cytotoxicity in THP-1 Cells of Compounds that Modulate Mycobacterium tuberculosis in Media Containing Glycerol versus Media without Glycerol (2).; type: functional
[38] = molecular target: Mitogen-activated protein kinase 13 (Homo sapiens, UniProt O15264); type: functional
[39] = molecular target: Melanin-concentrating hormone receptor 1 (Homo sapiens, UniProt Q99705); experiment: Late-stage fluorescence-based counterscreen for antagonists of the G-protein coupled receptor 7 (GPR7): cell-based dose response assay to identify antagonists of the melanin-concentrating hormone receptor 1 (MCHR1) Set 6.; type: functional
[40] = molecular target: T2, Neuropeptides B/W receptor type 1 (Homo sapiens, UniProt P48145); experiment: GPR7 antagonist potency, late-stage follow-up, cell-based, fluorescence, dose response, set 6 (AID 588583); type: functional
T2 sequence (P48145 whole entry): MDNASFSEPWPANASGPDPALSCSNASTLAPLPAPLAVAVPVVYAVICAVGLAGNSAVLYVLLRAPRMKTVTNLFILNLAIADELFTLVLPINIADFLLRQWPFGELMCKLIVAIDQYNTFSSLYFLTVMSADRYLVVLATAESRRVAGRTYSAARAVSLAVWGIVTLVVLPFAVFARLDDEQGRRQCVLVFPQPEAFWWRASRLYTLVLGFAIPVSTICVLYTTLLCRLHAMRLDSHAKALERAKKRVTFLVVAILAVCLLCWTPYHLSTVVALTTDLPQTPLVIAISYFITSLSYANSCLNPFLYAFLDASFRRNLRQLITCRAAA

[41] = molecular target: Protein kinase C delta type (Homo sapiens, UniProt Q05655); type: functional
[42] = molecular target: MAP/microtubule affinity-regulating kinase 3 (Homo sapiens, UniProt P27448); type: functional;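 further: MARK3 affinity measured as one member of a kinome panel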
MAP/microtubule affinity-regulating kinase 3, sequence (P27448 whole entry): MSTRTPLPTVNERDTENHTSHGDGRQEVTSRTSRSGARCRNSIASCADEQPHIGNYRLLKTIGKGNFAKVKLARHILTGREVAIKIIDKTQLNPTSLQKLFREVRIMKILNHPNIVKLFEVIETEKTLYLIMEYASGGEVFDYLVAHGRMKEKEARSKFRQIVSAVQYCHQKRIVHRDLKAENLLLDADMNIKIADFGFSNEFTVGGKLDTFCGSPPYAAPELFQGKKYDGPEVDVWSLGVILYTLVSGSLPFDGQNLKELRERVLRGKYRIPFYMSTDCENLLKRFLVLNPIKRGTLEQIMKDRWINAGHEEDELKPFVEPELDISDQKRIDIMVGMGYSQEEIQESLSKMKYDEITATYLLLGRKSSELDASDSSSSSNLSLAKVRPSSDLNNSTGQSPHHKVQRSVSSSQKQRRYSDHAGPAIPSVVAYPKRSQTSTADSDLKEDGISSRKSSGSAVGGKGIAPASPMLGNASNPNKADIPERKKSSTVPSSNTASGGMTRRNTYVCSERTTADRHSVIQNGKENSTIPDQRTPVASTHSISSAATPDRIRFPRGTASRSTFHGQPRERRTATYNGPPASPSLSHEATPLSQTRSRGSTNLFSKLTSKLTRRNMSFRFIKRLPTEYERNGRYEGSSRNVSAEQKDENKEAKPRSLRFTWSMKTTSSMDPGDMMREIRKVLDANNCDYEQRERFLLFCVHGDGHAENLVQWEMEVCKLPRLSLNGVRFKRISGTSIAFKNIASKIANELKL

[43] = molecular target: Serine/threonine-protein kinase Chk2 (Homo sapiens, UniProt O96017); type: functional;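 further: CHEK2 entry within a kinome-wide screening panel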
[44] = molecular target: cAMP-dependent protein kinase catalytic subunit alpha (Homo sapiens, UniProt P17612); type: functional
[45] = molecular target: Serine/threonine-protein kinase Chk1 (Homo sapiens, UniProt O14757); type: functional;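 further: measured as one member of a kinome-wide kinase profiling panel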
Serine/threonine-protein kinase Chk1, sequence (O14757 whole entry): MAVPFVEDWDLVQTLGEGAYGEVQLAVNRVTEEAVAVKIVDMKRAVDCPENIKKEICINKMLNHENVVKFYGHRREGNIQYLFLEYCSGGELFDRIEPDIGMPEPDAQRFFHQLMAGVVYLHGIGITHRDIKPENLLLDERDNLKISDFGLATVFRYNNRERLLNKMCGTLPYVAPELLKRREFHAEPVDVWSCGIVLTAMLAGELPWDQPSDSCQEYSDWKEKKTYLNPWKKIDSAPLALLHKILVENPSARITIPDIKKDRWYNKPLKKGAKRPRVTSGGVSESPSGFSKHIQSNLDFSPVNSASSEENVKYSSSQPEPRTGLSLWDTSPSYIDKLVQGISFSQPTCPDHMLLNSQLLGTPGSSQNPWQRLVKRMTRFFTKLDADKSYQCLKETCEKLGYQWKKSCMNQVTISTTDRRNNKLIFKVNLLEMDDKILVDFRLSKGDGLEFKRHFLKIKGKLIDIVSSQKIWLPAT

[46] = molecular target: Aurora kinase A (Homo sapiens, UniProt O14965); type: functional;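 further: value from the Navigating the Kinome kinase panel profiling, panel entry STK6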
Aurora kinase A, sequence (O14965 whole entry): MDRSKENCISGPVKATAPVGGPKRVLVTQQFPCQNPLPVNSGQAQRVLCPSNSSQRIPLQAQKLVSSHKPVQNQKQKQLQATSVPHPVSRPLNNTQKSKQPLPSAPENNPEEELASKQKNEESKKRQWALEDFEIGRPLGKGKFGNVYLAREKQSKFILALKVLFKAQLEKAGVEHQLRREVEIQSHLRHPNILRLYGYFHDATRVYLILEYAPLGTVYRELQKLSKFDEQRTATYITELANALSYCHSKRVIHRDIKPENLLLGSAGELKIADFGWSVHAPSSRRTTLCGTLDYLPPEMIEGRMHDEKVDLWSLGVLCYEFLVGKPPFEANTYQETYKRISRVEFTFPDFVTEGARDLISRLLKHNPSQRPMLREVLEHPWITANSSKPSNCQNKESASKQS

[47] = molecular target: Ribosomal protein S6 kinase alpha-3 (Homo sapiens, UniProt P51812); type: functional;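 further: measured within a kinome-wide profiling panel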

Dual specificity protein kinase CLK2, sequence (P49760 whole entry): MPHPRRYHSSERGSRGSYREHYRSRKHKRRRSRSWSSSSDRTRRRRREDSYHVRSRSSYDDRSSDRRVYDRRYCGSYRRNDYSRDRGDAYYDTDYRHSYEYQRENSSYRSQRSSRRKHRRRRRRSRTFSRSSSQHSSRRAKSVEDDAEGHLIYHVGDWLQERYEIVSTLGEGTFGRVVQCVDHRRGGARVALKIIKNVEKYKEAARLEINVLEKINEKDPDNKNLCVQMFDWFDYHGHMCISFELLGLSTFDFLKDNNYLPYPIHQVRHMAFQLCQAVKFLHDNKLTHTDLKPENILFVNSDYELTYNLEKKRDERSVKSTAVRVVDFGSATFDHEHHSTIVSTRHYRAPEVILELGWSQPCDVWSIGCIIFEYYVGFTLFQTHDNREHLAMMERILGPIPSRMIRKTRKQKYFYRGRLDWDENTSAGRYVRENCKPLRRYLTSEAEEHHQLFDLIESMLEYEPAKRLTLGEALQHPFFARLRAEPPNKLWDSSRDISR

Q: What does the source list for `Nc1ncnc2c1c(-c1cnc3[nH]ccc3c1)nn2C1CCCC1`?
A: Ki [1]: 1 µM (active); Ki [2]: 1.26 µM (active); Ki [3]: 1 µM (active); Ki [4]: 0.158 µM (active); Ki [5]: 0.158 µM (active); Ki [6]: 0.501 µM (active); Ki [7]: > 2.51 µM (inactive); Ki [8]: 1.26 µM (active); Ki [9]: 0.794 µM (active); Ki [10]: 0.0631 µM (active); Ki [11]: 0.398 µM (active); Ki [12]: 0.0794 µM (active); Ki [13]: 0.0631 µM (active); Ki [14]: 0.126 µM (active); Ki [15]: 0.251 µM (active); Ki [16]: 0.316 µM (active); Ki [17]: 0.1 µM (active); Ki [18]: 1.26 µM (active); Ki [19]: 0.2 µM (active); Ki [20]: 2 µM (active); Ki [21]: 0.158 µM (active); Ki [22]: 0.0398 µM (active); Ki [23]: 0.316 µM (active); Ki [24]: > 3.16 µM (inactive); Ki [25]: 1 µM (active); Ki [26]: 0.0631 µM (active)

Q: For `Cc1cc(Br)ccc1NC(=O)c1cnc(N2CCN(c3ccccn3)CC2)c2ccccc12`, which CC50 [27] is on record?
A: > 50 µM (active)

Q: What about the CC50 [28] of the same compound?
A: 82 µM (active)

Q: What about the AC50 [29] of the same compound?
A: 7.54 µM (active)

Q: What about the CC50 [30] of the same compound?
A: > 40 µM (active)

Q: And the CC50 [31]?
A: 46.3 µM (active)

Q: And the AC50 [32]?
A: 8.93 µM (active)

Q: What about the CC50 [33] of the same compound?
A: 13.2 µM (active)

Q: And the CC50 [34]?
A: > 50 µM (active)

Q: What about the CC50 [35] of the same compound?
A: 39.8 µM (active)

Q: And the CC50 [36]?
A: > 100 µM (active)

Q: And the CC50 [37]?
A: 86 µM (active)

Q: For `O=C(Nc1cnccn1)Nc1ccnc2c(F)cccc12`, which Ki [38] is on record?
A: > 7.94 µM (inactive)

Q: With `N#Cc1cccc(C(C#N)c2c(Br)cnn(Cc3cccc4ccccc34)c2=O)c1` (configuration not stated) as the compound, how does the IC50 [39] read?
A: ~0.693 µM (active)

Q: What about the IC50 [40] of the same compound?
A: ~0.693 µM (active)

Q: For `CN(C)c1ncnc2nc[nH]c12` [DIMETHYLADENINE], which Ki [41] is on record?
A: 12.6 µM (active)

Q: And the Ki [42]?
A: 5.01 µM (active)

Q: And the Ki [43]?
A: 3.98 µM (active)

Q: And the Ki [44]?
A: 15.8 µM (active)

Q: And the Ki [45]?
A: 12.6 µM (active)

Q: And the Ki [46]?
A: 3.98 µM (active)

Q: What about the Ki [47] of the same compound?
A: 5.01 µM (active)
